Measured values taken from PMC5762315, “Inhibition of polo-like kinase 4 (PLK4): a new therapeutic option for rhabdoid tumors and pediatric medulloblastoma” (Oncotarget, 2017).
Values joined by “and” are separate entries in the source; they are usually repeats but may differ in a detail not shown here. Equal entries are not always repeated.

Experiments:
Test in all cases: biochemical
Type in all cases: biochemical
[1] = molecular target: various kinases (Homo sapiens, UniProt P22455); settings: FGFR4
[2] = molecular target: various kinases (Homo sapiens, UniProt Q00537); settings: CDK17/cyclin Y
Chain of various kinases (Homo sapiens, UniProt Q00537) (Q00537 whole entry): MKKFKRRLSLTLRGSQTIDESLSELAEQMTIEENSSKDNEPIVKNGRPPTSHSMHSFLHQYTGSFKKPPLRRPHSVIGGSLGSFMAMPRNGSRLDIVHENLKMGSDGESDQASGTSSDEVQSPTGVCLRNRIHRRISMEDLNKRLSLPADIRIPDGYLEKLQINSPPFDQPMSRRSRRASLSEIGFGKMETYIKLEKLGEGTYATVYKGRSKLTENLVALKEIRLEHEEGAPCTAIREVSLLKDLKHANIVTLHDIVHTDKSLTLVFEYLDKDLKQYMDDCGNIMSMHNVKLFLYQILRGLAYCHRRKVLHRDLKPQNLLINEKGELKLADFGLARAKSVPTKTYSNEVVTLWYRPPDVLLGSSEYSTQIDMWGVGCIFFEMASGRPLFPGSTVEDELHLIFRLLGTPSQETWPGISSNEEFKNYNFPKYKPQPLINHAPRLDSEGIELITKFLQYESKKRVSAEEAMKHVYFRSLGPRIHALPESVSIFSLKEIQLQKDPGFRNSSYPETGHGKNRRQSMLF

[3] = molecular target: various kinases (Homo sapiens, UniProt P36896); settings: ACVR1B (ALK4)
Chain of various kinases (Homo sapiens, UniProt P36896) (P36896 24-505): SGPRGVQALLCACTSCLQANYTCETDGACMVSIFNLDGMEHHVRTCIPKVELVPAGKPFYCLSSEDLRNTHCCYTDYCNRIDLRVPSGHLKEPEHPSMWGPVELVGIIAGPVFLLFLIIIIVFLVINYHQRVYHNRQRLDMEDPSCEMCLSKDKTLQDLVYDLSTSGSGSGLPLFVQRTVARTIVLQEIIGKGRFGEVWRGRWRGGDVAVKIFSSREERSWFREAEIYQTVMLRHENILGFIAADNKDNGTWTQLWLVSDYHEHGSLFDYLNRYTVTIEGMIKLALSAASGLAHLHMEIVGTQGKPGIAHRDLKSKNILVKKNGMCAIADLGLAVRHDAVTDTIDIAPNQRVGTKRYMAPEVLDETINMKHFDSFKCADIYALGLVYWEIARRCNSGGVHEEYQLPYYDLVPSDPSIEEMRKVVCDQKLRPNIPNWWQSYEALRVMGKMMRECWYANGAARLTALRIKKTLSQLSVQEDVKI

[4] = molecular target: various kinases (Homo sapiens, UniProt Q96PY6); settings: NEK1
[5] = molecular target: various kinases (Homo sapiens, UniProt Q9H1R3); settings: MYLK2 (skMLCK)
[6] = molecular target: various kinases (Homo sapiens, UniProt O43781); settings: DYRK3
[7] = molecular target: various kinases (Homo sapiens, UniProt Q9H3Y6); settings: kinase SRMS (Srm); ZLYTE
Chain of various kinases (Homo sapiens, UniProt Q9H3Y6) (Q9H3Y6 whole entry): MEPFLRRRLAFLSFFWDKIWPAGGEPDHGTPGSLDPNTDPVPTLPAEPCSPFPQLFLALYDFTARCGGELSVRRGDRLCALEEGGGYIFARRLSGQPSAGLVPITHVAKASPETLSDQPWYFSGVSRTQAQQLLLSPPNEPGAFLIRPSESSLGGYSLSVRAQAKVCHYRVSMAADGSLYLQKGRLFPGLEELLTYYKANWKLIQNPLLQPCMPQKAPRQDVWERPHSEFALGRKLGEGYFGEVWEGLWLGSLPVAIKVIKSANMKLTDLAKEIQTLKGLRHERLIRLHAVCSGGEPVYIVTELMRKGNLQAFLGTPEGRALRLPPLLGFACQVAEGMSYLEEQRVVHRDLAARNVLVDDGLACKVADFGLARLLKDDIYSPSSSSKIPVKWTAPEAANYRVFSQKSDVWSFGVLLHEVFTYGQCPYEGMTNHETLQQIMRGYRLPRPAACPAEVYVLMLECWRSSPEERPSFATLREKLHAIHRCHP

[8] = molecular target: various kinases (Homo sapiens, UniProt P00533, G719C); settings: EGFR (ErbB1) G719C
[9] = molecular target: various kinases (Homo sapiens, UniProt Q9Y5S2); settings: CDC42 BPB (MRCKB)
[10] = molecular target: T1, various kinases (Homo sapiens, UniProt O00141); settings: kinase SGK (SGK1); ZLYTE
T1 sequence (O00141 1-431): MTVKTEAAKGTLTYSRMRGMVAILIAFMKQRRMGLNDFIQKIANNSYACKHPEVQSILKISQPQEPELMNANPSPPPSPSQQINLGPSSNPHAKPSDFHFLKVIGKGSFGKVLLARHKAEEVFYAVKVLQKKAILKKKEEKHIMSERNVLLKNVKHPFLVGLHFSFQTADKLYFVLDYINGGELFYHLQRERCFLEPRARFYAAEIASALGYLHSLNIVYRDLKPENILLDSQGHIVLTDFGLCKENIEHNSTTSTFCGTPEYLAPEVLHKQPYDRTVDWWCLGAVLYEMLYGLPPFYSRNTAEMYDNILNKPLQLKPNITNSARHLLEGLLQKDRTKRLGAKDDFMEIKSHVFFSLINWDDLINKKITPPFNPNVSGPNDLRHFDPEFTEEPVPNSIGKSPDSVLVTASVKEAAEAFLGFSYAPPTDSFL

[11] = molecular target: various kinases (Homo sapiens, UniProt P06241); settings: FYN
[12] = molecular target: various kinases (Homo sapiens, UniProt O14757); settings: CHEK1 (CHK1)
[13] = molecular target: various kinases (Homo sapiens, UniProt P27448); settings: MARK3
Chain of various kinases (Homo sapiens, UniProt P27448) (P27448 whole entry): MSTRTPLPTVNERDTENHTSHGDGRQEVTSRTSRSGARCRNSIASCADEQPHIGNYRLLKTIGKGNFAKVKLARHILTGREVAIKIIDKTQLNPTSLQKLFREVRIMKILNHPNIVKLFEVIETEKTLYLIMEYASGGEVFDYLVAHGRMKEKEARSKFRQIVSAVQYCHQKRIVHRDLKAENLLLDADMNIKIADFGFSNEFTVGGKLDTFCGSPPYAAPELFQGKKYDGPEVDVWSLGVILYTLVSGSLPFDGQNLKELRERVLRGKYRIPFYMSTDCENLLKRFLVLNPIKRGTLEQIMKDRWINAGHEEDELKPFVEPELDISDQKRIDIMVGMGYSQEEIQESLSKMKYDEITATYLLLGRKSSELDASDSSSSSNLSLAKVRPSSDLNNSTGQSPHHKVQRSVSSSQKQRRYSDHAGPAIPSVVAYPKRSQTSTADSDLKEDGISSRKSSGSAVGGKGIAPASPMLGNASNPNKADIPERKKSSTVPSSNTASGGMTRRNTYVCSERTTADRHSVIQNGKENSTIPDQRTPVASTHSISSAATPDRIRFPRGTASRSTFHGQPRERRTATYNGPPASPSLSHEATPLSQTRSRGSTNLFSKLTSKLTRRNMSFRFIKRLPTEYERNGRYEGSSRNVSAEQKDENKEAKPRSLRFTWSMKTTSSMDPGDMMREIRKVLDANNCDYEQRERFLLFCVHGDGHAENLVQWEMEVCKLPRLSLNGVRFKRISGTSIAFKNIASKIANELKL

[14] = molecular target: various kinases (Homo sapiens, UniProt P08581); settings: MET (cMet)
[15] = molecular target: various kinases (Homo sapiens, UniProt Q9H422); settings: HIPK3 (YAK1)
[16] = molecular target: various kinases (Homo sapiens, UniProt P42685); settings: FRK (PTK5)
[17] = molecular target: various kinases (Homo sapiens, UniProt Q9H792); settings: PEAK1
[18] = molecular target: various kinases (Homo sapiens, UniProt P04626); settings: ERBB2 (HER2)
[19] = molecular target: various kinases (Homo sapiens, UniProt P35626); settings: ADRBK2 (GRK3)
[20] = molecular target: various kinases (Homo sapiens, UniProt Q9H4B4); settings: kinase PLK3; ZLYTE
Chain of various kinases (Homo sapiens, UniProt Q9H4B4) (Q9H4B4 whole entry): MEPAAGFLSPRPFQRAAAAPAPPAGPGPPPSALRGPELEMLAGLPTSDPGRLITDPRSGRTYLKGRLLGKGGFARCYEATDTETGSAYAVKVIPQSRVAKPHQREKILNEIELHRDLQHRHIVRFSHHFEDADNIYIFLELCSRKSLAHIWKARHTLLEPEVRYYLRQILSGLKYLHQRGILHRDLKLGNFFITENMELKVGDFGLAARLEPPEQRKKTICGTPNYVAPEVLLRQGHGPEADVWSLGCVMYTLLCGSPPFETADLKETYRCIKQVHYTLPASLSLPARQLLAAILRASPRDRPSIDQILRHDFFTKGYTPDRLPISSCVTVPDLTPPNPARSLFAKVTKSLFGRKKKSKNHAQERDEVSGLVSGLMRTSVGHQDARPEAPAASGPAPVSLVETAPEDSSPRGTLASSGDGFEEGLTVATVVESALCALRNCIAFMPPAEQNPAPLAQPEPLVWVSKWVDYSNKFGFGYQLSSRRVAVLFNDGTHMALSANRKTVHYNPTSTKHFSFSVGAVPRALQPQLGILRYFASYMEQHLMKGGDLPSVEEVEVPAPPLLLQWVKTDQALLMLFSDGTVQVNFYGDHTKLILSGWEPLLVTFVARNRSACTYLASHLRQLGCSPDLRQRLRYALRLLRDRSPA

[21] = molecular target: various kinases (Homo sapiens, UniProt P78362); settings: kinase SRPK2; ZLYTE
Chain of various kinases (Homo sapiens, UniProt P78362) (P78362 whole entry): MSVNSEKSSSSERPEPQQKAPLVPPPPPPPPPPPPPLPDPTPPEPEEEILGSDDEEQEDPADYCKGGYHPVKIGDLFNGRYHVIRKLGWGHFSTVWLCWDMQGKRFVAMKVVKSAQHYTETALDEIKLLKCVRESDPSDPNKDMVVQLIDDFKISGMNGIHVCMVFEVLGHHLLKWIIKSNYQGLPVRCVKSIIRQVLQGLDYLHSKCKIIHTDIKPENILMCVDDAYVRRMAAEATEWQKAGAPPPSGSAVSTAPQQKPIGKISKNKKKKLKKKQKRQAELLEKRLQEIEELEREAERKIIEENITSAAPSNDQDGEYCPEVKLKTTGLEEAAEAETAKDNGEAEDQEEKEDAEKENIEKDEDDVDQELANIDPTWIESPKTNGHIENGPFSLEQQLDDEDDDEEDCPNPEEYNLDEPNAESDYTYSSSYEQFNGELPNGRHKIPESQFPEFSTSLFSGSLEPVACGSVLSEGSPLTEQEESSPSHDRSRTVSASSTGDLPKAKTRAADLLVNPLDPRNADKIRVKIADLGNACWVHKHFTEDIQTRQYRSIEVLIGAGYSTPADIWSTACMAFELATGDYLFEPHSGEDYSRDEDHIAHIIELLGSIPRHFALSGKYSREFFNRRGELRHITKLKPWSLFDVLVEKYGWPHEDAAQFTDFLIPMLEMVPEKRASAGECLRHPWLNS

[22] = molecular target: various kinases (Homo sapiens, UniProt P00519, E255K); settings: ABL1 E255K
[23] = molecular target: T2, various kinases (Homo sapiens, UniProt Q05513); settings: kinase PRKCZ (PKC zeta); ZLYTE
T2 sequence (Q05513 1-592): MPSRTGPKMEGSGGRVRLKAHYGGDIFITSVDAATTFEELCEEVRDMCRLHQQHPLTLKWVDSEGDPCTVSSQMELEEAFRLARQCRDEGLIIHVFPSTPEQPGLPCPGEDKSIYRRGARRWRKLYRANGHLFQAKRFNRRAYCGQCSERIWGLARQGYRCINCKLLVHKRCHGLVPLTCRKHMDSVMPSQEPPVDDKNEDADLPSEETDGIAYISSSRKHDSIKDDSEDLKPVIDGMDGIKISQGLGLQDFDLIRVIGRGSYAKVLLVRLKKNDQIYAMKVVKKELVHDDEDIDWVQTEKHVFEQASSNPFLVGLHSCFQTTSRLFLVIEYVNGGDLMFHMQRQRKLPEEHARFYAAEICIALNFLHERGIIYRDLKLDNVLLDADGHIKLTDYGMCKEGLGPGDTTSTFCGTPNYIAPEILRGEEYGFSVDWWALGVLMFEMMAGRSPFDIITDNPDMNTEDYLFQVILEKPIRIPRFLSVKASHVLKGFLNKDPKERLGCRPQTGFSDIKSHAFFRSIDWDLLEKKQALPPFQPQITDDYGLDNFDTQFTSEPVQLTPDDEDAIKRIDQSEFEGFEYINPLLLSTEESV

[24] = molecular target: various kinases (Homo sapiens, UniProt Q9UBS0); settings: kinase RPS6KB2 (p70S6Kb); ZLYTE
Chain of various kinases (Homo sapiens, UniProt Q9UBS0) (Q9UBS0 whole entry): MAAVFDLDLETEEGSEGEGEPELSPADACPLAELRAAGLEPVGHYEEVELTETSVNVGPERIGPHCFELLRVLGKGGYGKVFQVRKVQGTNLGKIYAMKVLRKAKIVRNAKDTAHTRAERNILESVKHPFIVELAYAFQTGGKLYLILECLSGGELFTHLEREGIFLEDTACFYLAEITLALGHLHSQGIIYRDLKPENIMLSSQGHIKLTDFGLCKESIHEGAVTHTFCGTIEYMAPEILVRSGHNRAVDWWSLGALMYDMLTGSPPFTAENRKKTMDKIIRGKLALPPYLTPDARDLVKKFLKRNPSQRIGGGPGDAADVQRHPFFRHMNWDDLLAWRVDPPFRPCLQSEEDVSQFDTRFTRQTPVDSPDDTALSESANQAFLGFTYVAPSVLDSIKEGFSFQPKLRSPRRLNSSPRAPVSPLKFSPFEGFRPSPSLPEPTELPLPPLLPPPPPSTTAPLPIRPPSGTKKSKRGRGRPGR

[25] = molecular target: various kinases (Homo sapiens, UniProt Q16512); settings: kinase PKN1 (PRK1); ZLYTE
Chain of various kinases (Homo sapiens, UniProt Q16512) (Q16512 whole entry): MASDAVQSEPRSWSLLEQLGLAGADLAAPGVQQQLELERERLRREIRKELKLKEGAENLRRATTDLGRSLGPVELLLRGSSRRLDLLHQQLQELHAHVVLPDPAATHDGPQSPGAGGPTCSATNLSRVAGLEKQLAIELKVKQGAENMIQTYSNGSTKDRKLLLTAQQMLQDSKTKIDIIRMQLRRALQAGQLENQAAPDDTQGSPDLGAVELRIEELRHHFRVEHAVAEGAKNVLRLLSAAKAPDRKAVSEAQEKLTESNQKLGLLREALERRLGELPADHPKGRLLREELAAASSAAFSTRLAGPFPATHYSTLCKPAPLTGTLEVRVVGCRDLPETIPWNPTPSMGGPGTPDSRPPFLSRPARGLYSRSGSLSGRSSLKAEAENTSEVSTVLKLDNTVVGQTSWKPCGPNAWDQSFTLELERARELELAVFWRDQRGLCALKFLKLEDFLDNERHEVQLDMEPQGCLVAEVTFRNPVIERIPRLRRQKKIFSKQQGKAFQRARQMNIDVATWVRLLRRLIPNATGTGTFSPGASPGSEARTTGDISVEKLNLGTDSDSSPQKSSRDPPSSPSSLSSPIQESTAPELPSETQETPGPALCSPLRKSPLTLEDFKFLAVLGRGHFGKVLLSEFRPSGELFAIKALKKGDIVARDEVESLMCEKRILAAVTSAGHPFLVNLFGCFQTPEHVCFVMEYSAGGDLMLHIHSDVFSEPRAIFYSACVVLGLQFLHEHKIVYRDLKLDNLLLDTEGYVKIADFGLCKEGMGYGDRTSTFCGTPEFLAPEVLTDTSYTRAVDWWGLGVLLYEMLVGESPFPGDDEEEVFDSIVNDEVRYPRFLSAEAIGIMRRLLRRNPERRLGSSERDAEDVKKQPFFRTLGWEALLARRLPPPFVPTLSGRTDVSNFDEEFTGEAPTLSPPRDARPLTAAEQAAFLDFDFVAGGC

COc1ccc2c(c1)[C@]1(C[C@H]1c1ccc3c(/C=C/c4ccc(CN5C[C@@H](C)O[C@@H](C)C5)cc4)n[nH]c3c1)C(=O)N2 [CFI-400945]
% Inhibition [1]: 10% and 16% | % Inhibition [2]: -1% and 8% | % Inhibition [3]: -1% and -8% | % Inhibition [4]: 7% and 2% | % Inhibition [5]: 6% and 7% | % Inhibition [6]: 9% and 5% | % Inhibition Average [7]: 11% | % Inhibition Duplicate #1 [7]: 10% | % Inhibition Duplicate #2 [7]: 12% | % Inhibition [8]: 3% and 2% | % Inhibition [9]: -1% and 2% | % Inhibition Average [10]: 8% | % Inhibition Duplicate #1 [10]: 9% | % Inhibition Duplicate #2 [10]: 7% | % Inhibition [11]: 6% and 5% | % Inhibition [12]: 9% and 11% | % Inhibition [13]: 9% and 19% | % Inhibition [14]: 16% and 14% | % Inhibition [15]: 2% and 3% | % Inhibition [16]: 8% and 7% | % Inhibition [17]: 5% and 11% | % Inhibition [18]: -2% and 1% | % Inhibition [19]: 4% and 7% | % Inhibition Average [20]: -2% | % Inhibition Duplicate #1 [20]: -7% | % Inhibition Duplicate #2 [20]: 3% | % Inhibition Average [21]: 7% | % Inhibition Duplicate #1 [21]: 10% | % Inhibition Duplicate #2 [21]: 4% | % Inhibition [22]: 39% and 36% | % Inhibition Average [23]: -11% | % Inhibition Duplicate #1 [23]: -22% | % Inhibition Duplicate #2 [23]: 0% | % Inhibition Average [24]: 5% | % Inhibition Duplicate #1 [24]: 5% | % Inhibition Duplicate #2 [24]: 4% | % Inhibition Average [25]: 20% | % Inhibition Duplicate #1 [25]: 27% | % Inhibition Duplicate #2 [25]: 13%
